Measured values taken from patent US20230013669A1, “Antibacterial Treatment Using a Cannabinoid and an Active Agent” (priority 2019, published 2023).
Values joined by “and” are separate entries in the source; they are usually repeats but may differ in a detail not shown here. Identical values can stand only once. Like-named read-outs stand apart in the source and are kept apart here.

Tested on: Pseudomonas aeruginosa ATCC 27853 (GN_042)
Experiment: Synergy of cannabidiol with cell-wall disrupting agent (CBD MIC in combination, FICI)
Assay type: cell-based
Settings: for CBD MIC with Cefotetan: Cefotetan at 128 μg/mL; for FICI: calculated using MIC of 256 μg/mL for cannabidiol; for MIC: Pseudomonas aeruginosa
Method: The compounds were stored short term at 4° C.
Analysis was performed using Microsoft Excel.

C=C(C)C1CCC(C)=CC1c1c(O)cc(CCCCC)cc1O (centres unmarked) [Cannabidiol, 2-[3-methyl-6-(1-methylethenyl)-2-cyclohexen-1-yl]-5-pentyl-1,3-benzenediol]
CBD MIC with Cefotetan: >32 µg/mL | CBD MIC with Cefotetan (Pseudomonas aeruginosa ATCC 27853): >256 µg/mL | CBD MIC with Ceftazidime (Ceftazidime at 0.015 μg/mL as headed in Table 64, Pseudomonas aeruginosa ATCC 27853): >256 µg/mL | CBD MIC with Ceftazidime (Ceftazidime at 0.031 μg/mL as headed in Table 64, Pseudomonas aeruginosa ATCC 27853): >256 µg/mL | CBD MIC with Ceftazidime (Ceftazidime at 0.062 μg/mL as headed in Table 64, Pseudomonas aeruginosa ATCC 27853): >256 µg/mL | CBD MIC with Ceftazidime (Ceftazidime at 0.25 μg/mL (Table 66), Pseudomonas aeruginosa ATCC 27853): >32 µg/mL | CBD MIC with Ceftazidime (Ceftazidime at 0.25 μg/mL as headed in Table 64, Pseudomonas aeruginosa ATCC 27853): 0.001 µg/mL | CBD MIC with Ceftazidime (Ceftazidime at 0.5 μg/mL (Table 66), Pseudomonas aeruginosa ATCC 27853): >32 µg/mL | CBD MIC with Ceftazidime (Ceftazidime at 0.5 μg/mL as headed in Table 64, Pseudomonas aeruginosa ATCC 27853): 0.001 µg/mL | CBD MIC with Ceftazidime (Ceftazidime at 1 μg/mL (Table 66), Pseudomonas aeruginosa ATCC 27853): >32 µg/mL | CBD MIC with Ceftazidime (Ceftazidime at 2 μg/mL (Table 66), Pseudomonas aeruginosa ATCC 27853): 0.001 µg/mL | CBD MIC with Ceftazidime (Ceftazidime at 4 μg/mL (Table 66), Pseudomonas aeruginosa ATCC 27853): 0.001 µg/mL | CBD MIC with Ceftazidime (Ceftazidime at […] (Table 66), Pseudomonas aeruginosa ATCC 27853): >32 µg/mL | CBD MIC with Colistin (Colistin at 1 μg/mL, Pseudomonas aeruginosa ATCC 27853): 0.001 µg/mL | activity of cannabidiol in combination with Polymyxin B (Example 1): effective | Average FICI score (Example 1, GN_042, cannabidiol + MCC_006636 (Polymyxin B)): 0.265 | Synergy (Example 1, GN_042, cannabidiol + MCC_006636 (Polymyxin B), synergy when FICI≤0.5): YES | activity of cannabidiol combined with Polymyxin B (Example 6): effective | CBD MIC with Polymyxin B at concentration 0.015625 μg/mL (Example 6, GN_042): >256 µg/mL | CBD MIC with Polymyxin B at concentration 0.03125 μg/mL (Example 6, GN_042): >256 µg/mL | CBD MIC with Polymyxin B at concentration 0.0625 μg/mL (Example 6, GN_042): >256 µg/mL | CBD MIC with Polymyxin B at concentration 0.25 μg/mL (Example 6, GN_042): >256 µg/mL | CBD MIC with Polymyxin B at concentration […] (Example 6, GN_042): >256 µg/mL | CBD MIC with Polymyxin B at concentration 0.5 μg/mL (Example 6, GN_042, listed as CBD): 2 µg/mL and 4 µg/mL | activity of cannabidiol combined with ticarcillin (Example 13): effective | activity of cannabidiol combined with ceftazidime (Example 16): effective | activity of cannabidiol combined with aztreonam (Example 18): effective | activity of cannabidiol combined with octapeptin C4 (Example 21): effective | activity of cannabidiol in combination with MCC_8980 (Example 24): effective | FICI range (Pseudomonas aeruginosa ATCC 27853, CBD with FADDI-287, MIC table (Table 95), listed as CBD): 0.53-4 and 0.56-4 | FICI range (Pseudomonas aeruginosa ATCC 27853, CBD with FADDI-287, Synergy table (Table 97)): No Synergy | FICI range (Pseudomonas aeruginosa ATCC 27853, CBD with MCC_8980, MIC table (Table 99), listed as CBD): 0.16-1.06 and 0.19-1.06 | FICI range (Pseudomonas aeruginosa ATCC 27853, CBD with MCC_8980, Synergy table (Table 101), listed as CBD): 0.16-0.25 and 0.19-0.26 | FICI range (Pseudomonas aeruginosa ATCC 27853, CBD with Spero Potentiator SPR741, MIC table (Table 91)): 1.01-1.25 | FICI range (Pseudomonas aeruginosa ATCC 27853, CBD with Spero Potentiator SPR741, Synergy table (Table 93)): No Synergy | FICI range (Pseudomonas aeruginosa ATCC 27853, CBD with Spero SPR206, Synergy table): No Synergy | CBD MIC with FADDI-287 (Pseudomonas aeruginosa ATCC 27853, FADDI-287 at 0.5 μg/mL, listed as CBD): 16 µg/mL | CBD MIC with MCC_8980 (Pseudomonas aeruginosa ATCC 27853, MCC_8980 at 8 μg/mL, listed as CBD): 16 µg/mL | CBD MIC with MCC_8980 (Pseudomonas aeruginosa ATCC 27853, MCC_8980 at 16 μg/mL, listed as CBD): 2 µg/mL | FICI (Pseudomonas aeruginosa ATCC 27853, cannabidiol with FADDI-287 at 0.25 μg/mL): 1.25 | FICI (Pseudomonas aeruginosa ATCC 27853, cannabidiol with FADDI-287 at 0.5 μg/mL): 0.5312 and 0.5625 | FICI (Pseudomonas aeruginosa ATCC 27853, cannabidiol with FADDI-287 at 1 μg/mL): 1 | FICI (Pseudomonas aeruginosa ATCC 27853, cannabidiol with FADDI-287 at 2 μg/mL): 2 | FICI (Pseudomonas aeruginosa ATCC 27853, cannabidiol with FADDI-287 at 4 μg/mL): 4 | FICI (Pseudomonas aeruginosa ATCC 27853, cannabidiol with MCC_8980 at 0.5 μg/mL): 1.008 | FICI (Pseudomonas aeruginosa ATCC 27853, cannabidiol with MCC_8980 at 1 μg/mL): 1.016 | FICI (Pseudomonas aeruginosa ATCC 27853, cannabidiol with MCC_8980 at 4 μg/mL): 1.0625 | FICI (Pseudomonas aeruginosa ATCC 27853, cannabidiol with MCC_8980 at 8 μg/mL): 0.1562 and 0.1875 | FICI (Pseudomonas aeruginosa ATCC 27853, cannabidiol with MCC_8980 at 16 μg/mL): 0.2539 and 0.2578 | FICI (Pseudomonas aeruginosa ATCC 27853, cannabidiol with SPR741 at 0.5 μg/mL): 1.008 | FICI (Pseudomonas aeruginosa ATCC 27853, cannabidiol with SPR741 at 1 μg/mL): 1.016 | FICI (Pseudomonas aeruginosa ATCC 27853, cannabidiol with SPR741 at 4 μg/mL): 1.0625 | FICI (Pseudomonas aeruginosa ATCC 27853, cannabidiol with SPR741 at 16 μg/mL): 1.25 | MIC (ATCC27853, MCC_6442 at 4 μg/mL, Pseudomonas aeruginosa ATCC 27853, read-out: CBD MIC with MCC_6442): 0.001 µg/mL | MIC (ATCC27853, Octapeptin C4 at 4 μg/mL, read-out: CBD MIC with Octapeptin C4): 0.001 µg/mL | MIC (ATCC27853, Pseudomonas aeruginosa ATCC 27853, FADDI-287 at 0.5 μg/mL, read-out: CBD MIC with FADDI-287): 8 µg/mL | MIC (ATCC27853, Pseudomonas aeruginosa ATCC 27853, FADDI-287 at 1 μg/mL, read-out: CBD MIC with FADDI-287): 0.001 µg/mL | MIC (ATCC27853, Pseudomonas aeruginosa ATCC 27853, FADDI-287 at 2 μg/mL, read-out: CBD MIC with FADDI-287): 0.001 µg/mL | MIC (ATCC27853, Pseudomonas aeruginosa ATCC 27853, FADDI-287 at 4 μg/mL, read-out: CBD MIC with FADDI-287): 0.001 µg/mL | MIC (ATCC27853, Pseudomonas aeruginosa ATCC 27853, MCC_8980 at 8 μg/mL, read-out: CBD MIC with MCC_8980): 8 µg/mL | MIC (ATCC27853, Pseudomonas aeruginosa ATCC 27853, MCC_8980 at 16 μg/mL, read-out: CBD MIC with MCC_8980): 1 µg/mL | MIC (ATCC27853, Spero SPR206 at 0.25 μg/mL, 1st of 3 experiments, read-out: CBD MIC with Spero SPR206): > 256 µg/mL | MIC (ATCC27853, Spero SPR206 at 0.25 μg/mL, 3rd of 3 experiments, read-out: CBD MIC with Spero SPR206): > 256 µg/mL | MIC (ATCC27853, Spero SPR206 at 0.5 μg/mL, 1st of 3 experiments, read-out: CBD MIC with Spero SPR206): > 256 µg/mL | MIC (ATCC27853, Spero SPR206 at 0.5 μg/mL, 3rd of 3 experiments, read-out: CBD MIC with Spero SPR206): > 256 µg/mL | MIC (ATCC27853, Spero SPR206 at 1 μg/mL, 1st of 3 experiments, read-out: CBD MIC with Spero SPR206): 0.001 µg/mL | MIC (ATCC27853, Spero SPR206 at 1 μg/mL, 3rd of 3 experiments, read-out: CBD MIC with Spero SPR206): > 256 µg/mL | MIC (ATCC27853, Spero SPR206 at 2 μg/mL, 1st of 3 experiments, read-out: CBD MIC with Spero SPR206): 0.001 µg/mL | MIC (ATCC27853, Spero SPR206 at 2 μg/mL, 3rd of 3 experiments, read-out: CBD MIC with Spero SPR206): > 256 µg/mL | MIC (ATCC27853, Spero SPR206 at 4 μg/mL, 1st of 3 experiments, read-out: CBD MIC with Spero SPR206): 0.001 µg/mL | MIC (ATCC27853, Spero SPR206 at 4 μg/mL, 3rd of 3 experiments, read-out: CBD MIC with Spero SPR206): > 256 µg/mL | CBD MIC with Ticarcillin (Ticarcillin at 16 μg/mL, Pseudomonas aeruginosa ATCC 27853): 0.001 µg/mL | CBD MIC with Ticarcillin (Ticarcillin at 32 μg/mL, Pseudomonas aeruginosa ATCC 27853): 0.001 µg/mL | CBD MIC with Ticarcillin (Ticarcillin at 64 μg/mL, Pseudomonas aeruginosa ATCC 27853): 0.001 µg/mL
